Source: ChEMBL document CHEMBL5608215, “Development of amphipathic derivatives of thymol and carvacrol as potent broad-spectrum antibacterial agents” (Eur J Med Chem, 2024)
Activity calls are given as the source filed them. The rule behind the calls is not given here.

What was measured:
[1] = Toxicity in KM mouse assessed as histopathological abnormality in liver upto 40 mg/kg, ip measured for 24 hrs by H and E staining based analysis; format: organism-based; conditions: in vivo
[2] = Toxicity in KM mouse assessed as histopathological abnormality in heart upto 40 mg/kg, ip measured for 24 hrs by H and E staining based analysis; format: organism-based; conditions: in vivo
Staphylococcus aureus [3] = assay: Antibacterial activity against Staphylococcus aureus ATCC29213 by CLSI based serial dilution method; format: functional
Staphylococcus aureus [4] = assay: Antibacterial activity against methicillin-resistant Staphylococcus aureus 21-5 by CLSI based serial dilution method; format: functional
Enterococcus faecalis [5] = assay: Antibacterial activity against Enterococcus faecalis ATCC29212 by CLSI based serial dilution method; format: functional
Enterococcus = assay: Antibacterial activity against vancomycin-resistant Enterococcus ATCC51299 by CLSI based serial dilution method; format: functional
Staphylococcus aureus [6] = assay: Inhibition of antibiotic-resistance in Staphylococcus aureus ATCC29213 at 0.5 times of MIC incubated for 20 days; format: functional; conditions: time 20.0 day
Pseudomonas aeruginosa = assay: Anti-biofilm activity against Pseudomonas aeruginosa ATCC27853 assessed as biofilm formation rate at 8 times MIC incubated for 48 hrs by crystal violet staining based analysis relative to control; format: functional
Escherichia coli [7] = assay: Bactericidal activity against Escherichia coli ATCC25922 incubated upto 24 hrs by time-kill assay; format: functional, organism-based
Staphylococcus aureus [8] = assay: Bactericidal activity against Staphylococcus aureus ATCC29213 at 8 times MIC incubated for 24 hrs by time-kill assay relative to control; format: functional
Escherichia coli [9] = assay: Bactericidal activity against Escherichia coli ATCC25922 at 8 times MIC incubated for 12 hrs by time-kill assay relative to control; format: functional
Escherichia coli [10] = assay: Bactericidal activity against Escherichia coli ATCC25922 assessed as inhibition of bacterial regrowth at 8 times MIC incubated for 24 hrs by time-kill assay; format: functional, organism-based
Escherichia coli [11] = assay: Bactericidal activity against Escherichia coli ATCC25922 at MIC incubated for 12 hrs by time-kill assay relative to control; format: functional
Escherichia coli [12] = assay: Bactericidal activity against Escherichia coli ATCC25922 at MIC incubated for 24 hrs by time-kill assay relative to control; format: functional
Staphylococcus aureus [13] = assay: Antibacterial activity against Staphylococcus aureus ATCC29213 assessed as leakage of cell contents at 8 times MIC by SEM analysis; format: functional, organism-based
Enterococcus faecalis [14] = assay: Antibacterial activity against Enterococcus faecalis ATCC29212 assessed as cell surface wrinkling at 8 times MIC by SEM analysis; format: functional, organism-based
Enterococcus faecalis [15] = assay: Antibacterial activity against Enterococcus faecalis ATCC29212 assessed as cell surface disruption at 8 times MIC by SEM analysis; format: functional, organism-based
Enterococcus faecalis [16] = assay: Antibacterial activity against Enterococcus faecalis ATCC29212 assessed as leakage of cell contents at 8 times MIC by SEM analysis; format: functional, organism-based
Escherichia coli [17] = assay: Antibacterial activity against Escherichia coli ATCC25922 assessed as cell membrane damage incubated for 8 mins by SYTOX Green uptake assay; format: functional, organism-based
Staphylococcus aureus [18] = assay: Antibacterial activity against Staphylococcus aureus ATCC25923 upto 32 ug/ml incubated for 16 to 18 hrs in presence of cardiolipin; format: functional, organism-based; conditions: dose <= 32.0 µg/ml, time 16-18 hrs
Staphylococcus aureus [19] = assay: Antibacterial activity against Staphylococcus aureus ATCC25923 upto 32 ug/ml incubated for 16 to 18 hrs in presence of phosphatidylethanolamine; format: functional, organism-based; conditions: dose <= 32.0 µg/ml, time 16-18 hrs
Staphylococcus aureus [20] = assay: Antibacterial activity against Staphylococcus aureus ATCC25923 upto 32 ug/ml incubated for 16 to 18 hrs in presence of peptidoglycan; format: functional, organism-based; conditions: dose <= 32.0 µg/ml, time 16-18 hrs
[21] = Cytotoxicity against HUVEC cells assessed as cell viability at 32 ug/ml incubated for 24 hrs by CCK8 assay relative to control; format: toxicity, cell-based; conditions: human, at 32 µg/mL, read-out: Activity
[22] = Selectivity ratio of cytotoxicity against HUVEC cells for to MIC for Staphylococcus aureus ATCC29213; format: toxicity, cell-based; conditions: human
[23] = Hemolytic activity against rabbit RBC incubated for 1 hr by absorbance based assay; format: toxicity, cell-based, Oryctolagus cuniculus, Erythrocyte; conditions: rabbit red blood cells (erythrocytes)
[24] = Selectivity index, ratio of HC50 against rabbit RBC for to MIC for Escherichia coli ATCC25922; format: toxicity; conditions: rabbit red blood cells, pooled result: one value given for 6 cell lines, strains, targets or settings, read-out: Selectivity Index
Escherichia coli [25] = assay: Antibacterial activity against Escherichia coli ATCC25922 in plasma pretreated plasma with compound for 6 hrs followed by bacterial infection into plasma; format: functional, organism-based
[26] = Toxicity in KM mouse assessed as animal survival upto 40 mg/kg, ip measured for 24 hrs; format: organism-based; conditions: in vivo
[27] = Toxicity in KM mouse assessed as normal condition upto 40 mg/kg, ip measured for 24 hrs; format: organism-based; conditions: in vivo
[28] = Toxicity in KM mouse assessed as histopathological abnormality in lung upto 40 mg/kg, ip measured for 24 hrs by H and E staining based analysis; format: organism-based; conditions: in vivo
[29] = Toxicity in KM mouse assessed as histopathological abnormality in kidney upto 40 mg/kg, ip measured for 24 hrs by H and E staining based analysis; format: organism-based; conditions: in vivo
[30] = Toxicity in KM mouse assessed as damage in heart upto 40 mg/kg, ip measured for 24 hrs by H and E staining based analysis; format: organism-based; conditions: in vivo
[31] = Toxicity in KM mouse assessed as damage in liver upto 40 mg/kg, ip measured for 24 hrs by H and E staining based analysis; format: organism-based; conditions: in vivo
[32] = Toxicity in KM mouse assessed as damage in kidney upto 40 mg/kg, ip measured for 24 hrs by H and E staining based analysis; format: organism-based; conditions: in vivo
Staphylococcus aureus [33] = assay: Antibacterial activity against Staphylococcus aureus ATCC29213 infected in mouse model assessed as uniform smooth skin at 5 to 10 mg/kg, sc measured after 24 hrs; format: functional, organism-based; conditions: dose 5-10 mg/kg
Staphylococcus aureus [34] = assay: Antibacterial activity against Staphylococcus aureus ATCC29213 infected in mouse model assessed as reduction in abscesses size at 5 to 10 mg/kg, sc measured after 24 hrs; format: functional, organism-based; conditions: dose 5-10 mg/kg
Staphylococcus aureus [35] = assay: Antibacterial activity against Staphylococcus aureus ATCC29213 infected in mouse model assessed as reduction in inflammatory factors in skin at 5 to 10 mg/kg, sc measured after 24 hrs by H and E staining based analysis; format: functional, organism-based; conditions: dose 5-10 mg/kg
Staphylococcus aureus [36] = assay: Antibacterial activity against Staphylococcus aureus ATCC29213 infected in mouse model assessed as normalization of skin cell morphology at 5 to 10 mg/kg, sc measured after 24 hrs by H and E staining based analysis; format: functional, organism-based; conditions: dose 5-10 mg/kg
Staphylococcus aureus [37] = assay: Antibacterial activity against Staphylococcus aureus ATCC29213 infected in mouse model assessed as bacterial concentration at 5 mg/kg, sc measured after 24 hrs (reference value: 10^10.13 CFU/g); format: functional
Staphylococcus aureus [38] = assay: Antibacterial activity against Staphylococcus aureus ATCC29213 infected in mouse model assessed as bacterial concentration at 10 mg/kg, sc measured after 24 hrs (reference value: 10^10.13 CFU/g); format: functional
Staphylococcus aureus [39] = assay: Antibacterial activity against Staphylococcus aureus ATCC29213 infected in mouse model assessed as bacterial load reduction in abscesses at 10 mg/kg, sc measured after 24 hrs relative to control; format: functional; set-up: scale not given: the % may be the effect or the level left
Staphylococcus aureus [40] = assay: Antibacterial activity against Staphylococcus aureus ATCC29213 infected in mouse model assessed as bacterial load in abscesses at 5 mg/kg, sc measured after 24 hrs; format: functional

Q: Which results are given for `CCCCCCCNC(=O)C[N+](C)(C)CCCCOc1cc(C)ccc1C(C)C.[Br-]`?
A: Activity [1]: Non-Toxic; Activity [2]: Non-Toxic; MIC (Staphylococcus aureus [3]): 0.5 µg/mL; MIC (Staphylococcus aureus [4]): 4 µg/mL; MIC (Enterococcus faecalis [5]): 1 µg/mL; MIC (Enterococcus): 2 µg/mL; inhibition (Staphylococcus aureus [6]): Active; Activity (Pseudomonas aeruginosa): 22.3%; Activity (Escherichia coli [7]): Dose-Dependent Effect; Activity (Staphylococcus aureus [8]): >99.9%; Activity (Escherichia coli [9]): 100%; inhibition (Escherichia coli [10]): Active; Activity (Escherichia coli [11]): 99.99%; Activity (Escherichia coli [12]): 100%; Activity (Staphylococcus aureus [13]): Active; Activity (Enterococcus faecalis [14]): Active; Activity (Enterococcus faecalis [15]): Active; Activity (Enterococcus faecalis [16]): Active; Activity (Escherichia coli [17]): Dose-Dependent Effect; Activity (Staphylococcus aureus [18]): inactive; Activity (Staphylococcus aureus [19]): inactive; Activity (Staphylococcus aureus [20]): Active; viability at 24 h, 32 ug/ml [21]: 68.7%; selectivity ratio [22]: 64; HC50 at 1 h [23]: 472 µg/mL; selectivity ratio [24]: 59; Activity (Escherichia coli [25]): Active; Activity [26]: Non-Toxic; Activity [27]: Non-Toxic; Activity [28]: Non-Toxic; Activity [29]: Non-Toxic; Activity [30]: Non-Toxic; Activity [31]: Non-Toxic; Activity [32]: Non-Toxic; Activity (Staphylococcus aureus [33]): Active; Activity (Staphylococcus aureus [34]): Active; Activity (Staphylococcus aureus [35]): Active; Activity (Staphylococcus aureus [36]): Active; Activity (Staphylococcus aureus [37]): ~1 10^7.99CFU/g; Activity (Staphylococcus aureus [38]): ~1 10^7.67CFU/g; Activity (Staphylococcus aureus [39]): 99.65%; Activity (Staphylococcus aureus [40]): 2.14 log10CFU/g
